Key:
Plasmodium falciparum [1] = experiment: NOVARTIS: Inhibition of Plasmodium falciparum 3D7 (drug-susceptible) proliferation in erythrocyte-based infection assay; type: functional, organism-based
Plasmodium falciparum [2] = experiment: NOVARTIS: Inhibition of Plasmodium falciparum W2 (drug-resistant) proliferation in erythrocyte-based infection assay; type: functional, organism-based; settings: read-out: EC50
[3] = NOVARTIS: Cytotoxicity against human hepatocellular carcinoma cell line (Huh7); type: toxicity, cell-based, Huh-7; settings: Huh7 cells (hepatocellular carcinoma cell line)

SMILES | EC50 (Plasmodium falciparum [1]; Plasmodium falciparum, 3D7) | EC50 (Plasmodium falciparum [2]; Plasmodium falciparum, W2) | CC50 [3] | EC50 (Plasmodium falciparum [1]) | EC50 (Plasmodium falciparum [2])
Cc1ccnc(NC(c2ccc3ccccc3c2)c2ccc3cccnc3c2O)c1 (stereo unspecified) | 6750 nM | > 12500 nM | > 100000 nM |  | 
CCOC(=O)c1ccc(N(C(=O)Cc2c[nH]c3ccccc23)C(C(=O)NC2CCCCC2)c2cccc(OC)c2OC)cc1 (stereo unspecified) | 54.2 nM | 104 nM | > 100000 nM |  | 
O=[N+]([O-])c1ccc(N2CCN(C(=S)Nc3ccccc3)CC2)cc1 | 6010 nM | 1640 nM | > 100000 nM |  | 
Cc1cccc(NC(c2cccc(Cl)c2)c2ccc3cccnc3c2O)n1 (stereo unspecified) | 917 nM | 891 nM | > 62400 nM |  | 
O=C(NCc1ccccc1)c1cnc(NCCCN2CCCC2)nc1NCCc1ccccc1 | 648 nM | > 1250 nM | > 10000 nM |  | 
CCN1CCN(c2c(Cl)cccc2NC(=O)C(Cl)(Cl)Cl)CC1 | 1670 nM | 1180 nM | > 100000 nM |  | 
CC1=CC(=O)OC[C@]23CCC(C)=C[C@H]2O[C@@H]2C[C@@H](OC(=O)C=CC=CC(=O)OCC1)[C@@]3(C)[C@]21CO1 |  |  | 206 nM | 3.91 nM | 9.18 nM
COc1ccc(C2CC(=O)C3=C(C2)NC(C)=C(C(=O)OC(C)C)C3c2ccccc2C)cc1OC (stereo unspecified) | 9.98 nM | 14.5 nM | > 100000 nM |  | 
COc1ccc(C=NN=C2NC(=O)C(CC(=O)Nc3ccccc3)S2)cc1OC (stereo unspecified) | 482 nM | 857 nM | > 100000 nM |  | 
N=C(N)c1ccc(OCCCCCOc2ccc(C(=N)N)cc2)cc1 [PENTAMIDINE] | 66.2 nM | 68.7 nM | > 6250 nM |  | 
COc1ccc(/C=C/c2ccc3ccccc3[n+]2C)cc1 | 133 nM | 30.4 nM | > 10000 nM |  | 
Clc1ccc2c(c1)c1cc(Cl)ccc1n2CC1CO1 (stereo unspecified) | 341 nM | 277 nM | 57400 nM |  | 
Cc1ccc(-c2nn(-c3ccccc3)c3[nH]c(=O)c(CNCc4ccccc4)cc23)cc1 | 1610 nM | 467 nM | > 100000 nM |  | 
O=C(COc1cccc2ccccc12)NC1CCS(=O)(=O)C1 (stereo unspecified) | > 12500 nM | 1000 nM | > 100000 nM |  | 
O=C(Cc1ccsc1)NC1CCN(CC(O)CN(Cc2ccccc2)S(=O)(=O)c2ccccc2)C1 (stereo unspecified) | 411 nM | 188 nM | > 10000 nM |  | 
CCC(c1nc2ccccc2c(=O)n1CC)N1CCN(C(=O)Nc2ccccc2C(F)(F)F)CC1 (stereo unspecified) | 1300 nM | > 1250 nM | > 10000 nM |  | 
CCN(CC)CCCC(C)Nc1cc(C=Cc2ccc([N+](=O)[O-])cc2)nc2cc(OC)ccc12 (stereo unspecified) | 31.6 nM | 32.3 nM | 20200 nM |  | 
COc1ccc(CCN2CCC(Nc3nc4ccccc4n3Cc3ccc(F)cc3)CC2)cc1 [ASTEMIZOLE] | 447 nM | 711 nM | 20900 nM |  | 
CO[C@H]1C[C@H](C)Cc2cc(O)cc(c2)NC(=O)C(C)=CCC[C@H](OC)[C@@H](OC(N)=O)C(C)=CC(C)[C@H]1O (stereo partly specified) | > 1250 nM | 26.7 nM | > 10000 nM |  | 
CCOC(=O)C1CCN(C(=O)c2cc(C(C)(C)C)nn2Cc2ccc(Cl)cc2Cl)CC1 | 340 nM | 576 nM | > 100000 nM |  | 
OCC1CCCN1c1nccnc1-c1ccccc1Oc1ccccc1 (stereo unspecified) | > 868 nM | > 1250 nM | > 10000 nM |  | 
O=C(CCl)NCCCN(C(=O)Nc1ccc(Cl)c(Cl)c1)c1ccccc1 | 217 nM | 74 nM | > 931 nM |  | 
CCCc1ccc(OCCNC(=O)CCNC(=O)Nc2cccc(Cl)c2)cc1 | > 1380 nM | > 999 nM | > 10000 nM |  | 
O=C(Nc1cc(C(=O)N2CCC(Cc3ccccc3)CC2)ccc1N1CC2CC(C1)c1cccc(=O)n1C2)c1cccs1 (stereo unspecified) | 74.4 nM | 64.4 nM | 49700 nM |  | 
COc1ccccc1NC1=CC(=NS(=O)(=O)c2cccs2)c2ccccc2C1=O | 1070 nM | 906 nM | 19700 nM |  | 
CN(C)CCCNc1ccnc2cc(Cl)ccc12 | 76.9 nM | 76.3 nM | > 10000 nM |  | 
CCN(CC)c1ccc(C=C(C#N)c2nc3ccccc3[nH]2)o1 | 3350 nM | > 2670 nM | 46200 nM |  | 
